Experimental data: the supplement of paper PMC10627819

How the values were obtained:
Conditions in all cases: main component drawn
S. aureus Newman [1] = assay: Bliss interaction score (quartile over a dose matrix) (fitness difference); higher = more antagonism (negative = synergy)
Method in brief: (§1)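 Fitness was defined as normalised growth: OD595 at the start of stationary phase divided by the plate's robust no-drug mean and capped at 1. Single-drug fitness was inferred from combination measurements. The Bliss score is observed fitness minus the product of the single-drug values, summarised by quartiles across technical, biological and donor/recipient replicates.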

B. subtilis 168 = assay: as above
Method in brief: as §1

S. aureus DSM 20231 [2] = assay: as above
Method in brief: as §1

S. pneumoniae D39V = assay: as above
Method in brief: as §1

S. aureus Newman [3] = assay: fitness (endpoint OD595 vs no drug) (fraction); higher = more growth
Method in brief: (§2)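 Growth medium was TSB, LB Lennox or CY, and plates were kept at 37 °C. Inoculation was at OD595 0.01 in 384-well plates, at 30 µl per well or 55 µl for S. pneumoniae. OD595 was monitored every 30 min for 14 h and background-subtracted using the first reading. Fitness is the optical density on entering stationary phase divided by the robust mean of no-drug controls, with values capped at 1.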

S. aureus DSM 20231 [4] = assay: as above
Method in brief: as §2
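For Bliss interaction score (quartile over a dose matrix) in this document: first quartile when negative (synergy) and third quartile when positive (antagonism).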
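For fitness (endpoint OD595 vs no drug) in this document: OD595 on entry to stationary phase over no-drug wells; at most 1.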

Cc1onc(-c2ccccc2)c1C(=O)N[C@@H]1C(=O)N2[C@@H]1SC(C)(C)[C@@H]2C(=O)O [Oxacillin] + CCCCCCCCCC(=O)N[C@@H]1[C@H]([C@@H]([C@H](O[C@H]1OC2=C3C=C4C=C2OC5=C(C=C(C=C5)[C@H]([C@H]6C(=O)N[C@@H](C7=C(C(=CC(=C7)O)OC8[C@H]([C@H]([C@@H]([C@H](O8)CO)O)O)O)C9=C(C=CC(=C9)[C@H](C(=O)N6)NC(=O)[C@@H]4NC(=O)[C@@H]1C2=CC(=CC(=C2)OC2=C(C=CC(=C2)[C@H](C(=O)N[C@H](CC2=CC(=C(O3)C=C2)Cl)C(=O)N1)N)O)O)O)C(=O)O)O[C@H]1[C@@H]([C@H]([C@@H]([C@H](O1)CO)O)O)NC(=O)C)Cl)CO)O)O [Teicoplanin]
Conditions	Bliss interaction score
B. subtilis 168	-0.0735
S. aureus DSM 20231 [2]	0.062
S. aureus Newman [1]	-0.0741
S. pneumoniae D39V	-0.0582

fitness
Conditions	first compound 0.0156 µg/mL	first compound 0.0312 µg/mL	first compound 0.0625 µg/mL
S. aureus DSM 20231 [4], partner 0.1562 µg/mL	0.833	0.743	0.492
S. aureus DSM 20231 [4], partner 0.3125 µg/mL	0.877	0.811	0.485
S. aureus DSM 20231 [4], partner 0.625 µg/mL	0.813	0.693	0.541
S. aureus Newman [3], partner 0.1562 µg/mL	0.746	0.702	0.595
S. aureus Newman [3], partner 0.3125 µg/mL	0.732	0.708	0.596
S. aureus Newman [3], partner 0.625 µg/mL	0.721	0.65	–

fitness, S. aureus Newman [3], one replicate
Conditions	first compound 0.0156 µg/mL	first compound 0.0312 µg/mL	first compound 0.0625 µg/mL
partner 0.62 µg/mL	0.603	0.638	0.534
partner 1.24 µg/mL	0.668	0.596	0.351
partner 2.48 µg/mL	0.429	0.16	0.143

C[n+]1ccc(-c2cc[n+](C)cc2)cc1 [Paraquat] + CCCCCCCCCC(=O)N[C@@H]1[C@H]([C@@H]([C@H](O[C@H]1OC2=C3C=C4C=C2OC5=C(C=C(C=C5)[C@H]([C@H]6C(=O)N[C@@H](C7=C(C(=CC(=C7)O)OC8[C@H]([C@H]([C@@H]([C@H](O8)CO)O)O)O)C9=C(C=CC(=C9)[C@H](C(=O)N6)NC(=O)[C@@H]4NC(=O)[C@@H]1C2=CC(=CC(=C2)OC2=C(C=CC(=C2)[C@H](C(=O)N[C@H](CC2=CC(=C(O3)C=C2)Cl)C(=O)N1)N)O)O)O)C(=O)O)O[C@H]1[C@@H]([C@H]([C@@H]([C@H](O1)CO)O)O)NC(=O)C)Cl)CO)O)O [Teicoplanin]
Conditions	Bliss interaction score
B. subtilis 168	-0.044
S. aureus DSM 20231 [2]	0.0665
S. aureus Newman [1]	0.0904
S. pneumoniae D39V	0.0634

fitness
Conditions	first compound 1.25 µg/mL	first compound 2.5 µg/mL	first compound 5 µg/mL
S. aureus DSM 20231 [4], partner 0.1562 µg/mL	0.957	0.954	0.967
S. aureus DSM 20231 [4], partner 0.3125 µg/mL	0.99	≥ 1	≥ 1
S. aureus DSM 20231 [4], partner 0.625 µg/mL	≥ 1	≥ 1	≥ 1
S. aureus Newman [3], partner 0.1562 µg/mL	≥ 1	≥ 1	≥ 1
S. aureus Newman [3], partner 0.3125 µg/mL	≥ 1	0.98	0.962
S. aureus Newman [3], partner 0.625 µg/mL	0.912	0.87	0.846

fitness, S. aureus Newman [3], one replicate
Conditions	first compound 1.25 µg/mL	first compound 2.5 µg/mL	first compound 5 µg/mL
partner 0.62 µg/mL	0.795	0.782	0.775
partner 1.24 µg/mL	0.737	0.745	0.761
partner 2.48 µg/mL	0.336	0.402	0.117

Cn1c2cccc(=O)c-2nc2ccccc21 [Pyocyanin] + CCCCCCCCCC(=O)N[C@@H]1[C@H]([C@@H]([C@H](O[C@H]1OC2=C3C=C4C=C2OC5=C(C=C(C=C5)[C@H]([C@H]6C(=O)N[C@@H](C7=C(C(=CC(=C7)O)OC8[C@H]([C@H]([C@@H]([C@H](O8)CO)O)O)O)C9=C(C=CC(=C9)[C@H](C(=O)N6)NC(=O)[C@@H]4NC(=O)[C@@H]1C2=CC(=CC(=C2)OC2=C(C=CC(=C2)[C@H](C(=O)N[C@H](CC2=CC(=C(O3)C=C2)Cl)C(=O)N1)N)O)O)O)C(=O)O)O[C@H]1[C@@H]([C@H]([C@@H]([C@H](O1)CO)O)O)NC(=O)C)Cl)CO)O)O [Teicoplanin]
Conditions	Bliss interaction score
B. subtilis 168	-0.0698
S. aureus DSM 20231 [2]	0.0554
S. aureus Newman [1]	-0.114
S. pneumoniae D39V	0.0954

fitness
Conditions	first compound 1.25 µg/mL	first compound 2.5 µg/mL	first compound 5 µg/mL
S. aureus DSM 20231 [4], partner 0.1562 µg/mL	0.99	0.906	0.619
S. aureus DSM 20231 [4], partner 0.3125 µg/mL	≥ 1	0.962	0.647
S. aureus DSM 20231 [4], partner 0.625 µg/mL	≥ 1	≥ 1	0.691
S. aureus Newman [3], partner 0.1562 µg/mL	0.958	0.805	0.372
S. aureus Newman [3], partner 0.3125 µg/mL	0.891	0.769	0.35
S. aureus Newman [3], partner 0.625 µg/mL	0.708	0.54	0.247

fitness, S. aureus Newman [3], one replicate
Conditions	first compound 1.25 µg/mL	first compound 2.5 µg/mL	first compound 5 µg/mL
partner 0.62 µg/mL	0.72	0.696	0.473
partner 1.24 µg/mL	0.698	0.558	0.238
partner 2.48 µg/mL	0.328	0.14	0.072
